From ChEMBL document CHEMBL3046208, “Natural and synthetic podolactones with potential use as natural herbicide models” (2000)
Activity calls are given as the source filed them. No cut-off for these calls is given here.

Columns and labels:
[1] = system: Lactuca sativa; assay: Stimulation of germination of Lactuca sativa cv. Roman (lettuce) at 0.1 mM after 5 days relative to untreated control; type: functional
[2] = system: Triticum aestivum; assay: Stimulation of shoot length of Triticum aestivum (wheat) at 0.1 mM after 5 days relative to untreated control; type: functional
[3] = system: Lactuca sativa; assay: Stimulation of shoot length of Lactuca sativa cv. Roman (lettuce) at 0.1 mM after 5 days relative to untreated control; type: functional
[4] = system: Allium cepa; assay: Stimulation of shoot length of Allium cepa (onion) at 0.1 mM after 5 days relative to untreated control; type: functional
[5] = system: Hordeum vulgare; assay: Stimulation of germination of Hordeum vulgare (barley) at 0.1 mM after 5 days relative to untreated control; type: functional
[6] = system: Allium cepa; assay: Inhibition of root length of Allium cepa (onion) at 10 uM after 5 days relative to untreated control; type: functional; details: 120 h
[7] = system: Lepidium sativum; assay: Inhibition of root length of Lepidium sativum at 0.1 mM after 5 days relative to untreated control; type: functional; details: 120 h
[8] = system: Lepidium sativum; assay: Stimulation of germination of Lepidium sativum at 0.1 mM after 5 days relative to untreated control; type: functional
[9] = system: Lepidium sativum; assay: Inhibition of shoot length of Lepidium sativum at 0.1 mM after 5 days relative to untreated control; type: functional; details: 120 h
[10] = system: Solanum lycopersicum; assay: Inhibition of root length of Solanum lycopersicum (tomato) at 10 uM after 5 days relative to untreated control; type: functional, organism-based
[11] = system: Allium cepa; assay: Stimulation of root length of Allium cepa (onion) at 0.1 mM after 5 days relative to untreated control; type: functional
[12] = system: Triticum aestivum; assay: Stimulation of germination of Triticum aestivum (wheat) at 0.1 mM after 5 days relative to untreated control; type: functional
[13] = system: Hordeum vulgare; assay: Inhibition of germination of Hordeum vulgare (barley) at 0.1 mM after 5 days relative to untreated control; type: functional; details: 120 h
[14] = system: Lepidium sativum; assay: Stimulation of root length of Lepidium sativum at 1 uM after 5 days relative to untreated control; type: functional
[15] = system: Lepidium sativum; assay: Inhibition of root length of Lepidium sativum at 10 uM after 5 days relative to untreated control; type: functional, organism-based
[16] = system: Lepidium sativum; assay: Stimulation of shoot length of Lepidium sativum at 1 uM after 5 days relative to untreated control; type: functional
[17] = system: Triticum aestivum; assay: Inhibition of shoot length of Triticum aestivum (wheat) at 0.1 mM after 5 days relative to untreated control; type: functional; details: 120 h
[18] = system: Allium cepa; assay: Stimulation of germination of Allium cepa (onion) at 0.1 mM after 5 days relative to untreated control; type: functional
[19] = system: Triticum aestivum; assay: Inhibition of shoot length of Triticum aestivum (wheat) at 10 uM after 5 days relative to untreated control; type: functional, organism-based
[20] = system: Triticum aestivum; assay: Inhibition of root length of Triticum aestivum (wheat) at 0.1 mM after 5 days relative to untreated control; type: functional; details: 120 h
[21] = system: Triticum aestivum; assay: Inhibition of root length of Triticum aestivum (wheat) at 10 uM after 5 days relative to untreated control; type: functional; details: 120 h
[22] = system: Triticum aestivum; assay: Stimulation of root length of Triticum aestivum (wheat) at 0.1 mM after 5 days relative to untreated control; type: functional
[23] = system: Solanum lycopersicum; assay: Inhibition of root length of Solanum lycopersicum (tomato) at 1 uM after 5 days relative to untreated control; type: functional; details: 120 h
[24] = system: Hordeum vulgare; assay: Stimulation of root length of Hordeum vulgare (barley) at 0.1 mM after 5 days relative to untreated control; type: functional
[25] = system: Lactuca sativa; assay: Stimulation of root length of Lactuca sativa cv. Nigra (lettuce) at 0.1 mM after 5 days relative to untreated control; type: functional
[26] = system: Lactuca sativa; assay: Stimulation of germination of Lactuca sativa cv. Nigra (lettuce) at 0.1 mM after 5 days relative to untreated control; type: functional
[27] = system: Solanum lycopersicum; assay: Inhibition of shoot length of Solanum lycopersicum (tomato) at 10 uM after 5 days relative to untreated control; type: functional, organism-based
[28] = system: Allium cepa; assay: Inhibition of shoot length of Allium cepa (onion) at 0.1 mM after 5 days relative to untreated control; type: functional; details: 120 h
[29] = system: Allium cepa; assay: Inhibition of shoot length of Allium cepa (onion) at 10 uM after 5 days relative to untreated control; type: functional; details: 120 h
[30] = system: Lepidium sativum; assay: Stimulation of root length of Lepidium sativum at 0.1 mM after 5 days relative to untreated control; type: functional
[31] = system: Lactuca sativa; assay: Inhibition of germination of Lactuca sativa cv. Roman (lettuce) at 0.1 mM after 5 days relative to untreated control; type: functional; details: 120 h
[32] = system: Allium cepa; assay: Inhibition of germination of Allium cepa (onion) at 0.1 mM after 5 days relative to untreated control; type: functional; details: 120 h
[33] = system: Lactuca sativa; assay: Stimulation of shoot length of Lactuca sativa cv. Nigra (lettuce) at 0.1 mM after 5 days relative to untreated control; type: functional
[34] = system: Lepidium sativum; assay: Inhibition of germination of Lepidium sativum at 10 uM after 5 days relative to untreated control; type: functional, organism-based
[35] = system: Solanum lycopersicum; assay: Stimulation of root length of Solanum lycopersicum (tomato) at 0.1 mM after 5 days relative to untreated control; type: functional
[36] = system: Solanum lycopersicum; assay: Stimulation of germination of Solanum lycopersicum (tomato) at 0.1 mM after 5 days relative to untreated control; type: functional
[37] = system: Lepidium sativum; assay: Stimulation of shoot length of Lepidium sativum at 0.1 mM after 5 days relative to untreated control; type: functional
[38] = system: Lepidium sativum; assay: Inhibition of germination of Lepidium sativum at 0.1 mM after 5 days relative to untreated control; type: functional; details: 120 h
[39] = system: Lactuca sativa; assay: Inhibition of shoot length of Lactuca sativa cv. Nigra (lettuce) at 0.1 mM after 5 days relative to untreated control; type: functional; details: 120 h
[40] = system: Hordeum vulgare; assay: Stimulation of shoot length of Hordeum vulgare (barley) at 0.1 mM after 5 days relative to untreated control; type: functional
[41] = system: Lepidium sativum; assay: Inhibition of shoot length of Lepidium sativum at 10 uM after 5 days relative to untreated control; type: functional, organism-based
[42] = system: Hordeum vulgare; assay: Inhibition of root length of Hordeum vulgare (barley) at 0.1 mM after 5 days relative to untreated control; type: functional; details: 120 h
[43] = system: Solanum lycopersicum; assay: Inhibition of root length of Solanum lycopersicum (tomato) at 0.1 mM after 5 days relative to untreated control; type: functional; details: 120 h
[44] = system: Allium cepa; assay: Inhibition of root length of Allium cepa (onion) at 0.1 mM after 5 days relative to untreated control; type: functional; details: 120 h
[45] = system: Hordeum vulgare; assay: Inhibition of shoot length of Hordeum vulgare (barley) at 10 uM after 5 days relative to untreated control; type: functional, organism-based
[46] = system: Lactuca sativa; assay: Inhibition of germination of Lactuca sativa cv. Nigra (lettuce) at 0.1 mM after 5 days relative to untreated control; type: functional; details: 120 h
[47] = system: Solanum lycopersicum; assay: Stimulation of shoot length of Solanum lycopersicum (tomato) at 0.1 mM after 5 days relative to untreated control; type: functional
[48] = system: Solanum lycopersicum; assay: Inhibition of shoot length of Solanum lycopersicum (tomato) at 0.1 mM after 5 days relative to untreated control; type: functional; details: 120 h
[49] = system: Solanum lycopersicum; assay: Inhibition of shoot length of Solanum lycopersicum (tomato) at 1 uM after 5 days relative to untreated control; type: functional; details: 120 h
[50] = system: Solanum lycopersicum; assay: Inhibition of germination of Solanum lycopersicum (tomato) at 0.1 mM after 5 days relative to untreated control; type: functional; details: 120 h
[51] = system: Solanum lycopersicum; assay: Inhibition of germination of Solanum lycopersicum (tomato) at 10 uM after 5 days relative to untreated control; type: functional, organism-based
[52] = system: Hordeum vulgare; assay: Inhibition of root length of Hordeum vulgare (barley) at 10 uM after 5 days relative to untreated control; type: functional, organism-based
[53] = system: Lactuca sativa; assay: Inhibition of root length of Lactuca sativa cv. Roman (lettuce) at 0.1 mM after 5 days relative to untreated control; type: functional; details: 120 h
[54] = system: Lactuca sativa; assay: Stimulation of root length of Lactuca sativa cv. Roman (lettuce) at 0.1 mM after 5 days relative to untreated control; type: functional
[55] = system: Lactuca sativa; assay: Inhibition of root length of Lactuca sativa cv. Nigra (lettuce) at 0.1 mM after 5 days relative to untreated control; type: functional; details: 120 h
[56] = system: Hordeum vulgare; assay: Inhibition of shoot length of Hordeum vulgare (barley) at 0.1 mM after 5 days relative to untreated control; type: functional; details: 120 h
[57] = system: Lactuca sativa; assay: Inhibition of shoot length of Lactuca sativa cv. Roman (lettuce) at 0.1 mM after 5 days relative to untreated control; type: functional; details: 120 h
[58] = system: Triticum aestivum; assay: Inhibition of germination of Triticum aestivum (wheat) at 0.1 mM after 5 days relative to untreated control; type: functional; details: 120 h

CO[C@@H]1OC(=O)C=C2C1=C[C@H]1OC(=O)[C@@]3(C)CCC[C@@]2(C)[C@@H]13
Activity [1]: >40% | Activity [2]: >40% | Activity [3]: >40% | Activity [4]: >40% | Activity [5]: >40% | inhibition at 10 µM [6]: -54% | inhibition at 100 µM [7]: > 40% | Activity [8]: >40% | inhibition at 100 µM [9]: > 40% | inhibition [10]: Active | Activity [11]: >40% | Activity [12]: >40% | inhibition at 100 µM [13]: > 40% | Activity [14]: -44% | inhibition [15]: Active | Activity [16]: -73% | inhibition at 100 µM [17]: > 40% | Activity [18]: >40% | inhibition [19]: inactive | inhibition at 100 µM [20]: > 40% | inhibition at 10 µM [21]: -42% | Activity [22]: >40% | inhibition at 1 µM [23]: -45% | Activity [24]: >40% | Activity [25]: >40% | Activity [26]: 20% | inhibition [27]: Active | inhibition at 100 µM [28]: > 40% | inhibition at 10 µM [29]: -74% | Activity [30]: >40% | inhibition at 100 µM [31]: > 40% | inhibition at 100 µM [32]: > 40% | Activity [33]: >40% | inhibition [34]: Active | Activity [35]: >40% | Activity [36]: >40% | Activity [37]: >40% | inhibition at 100 µM [38]: > 40% | inhibition at 100 µM [39]: > 40% | Activity [40]: >40% | inhibition [41]: Active | inhibition at 100 µM [42]: > 40% | inhibition at 100 µM [43]: > 40% | inhibition at 100 µM [44]: > 40% | inhibition [45]: inactive | inhibition at 100 µM [46]: 20% | Activity [47]: >40% | inhibition at 100 µM [48]: > 40% | inhibition at 1 µM [49]: -44% | inhibition at 100 µM [50]: > 40% | inhibition [51]: Active | inhibition [52]: inactive | inhibition at 100 µM [53]: > 40% | Activity [54]: >40% | inhibition at 100 µM [55]: > 40% | inhibition at 100 µM [56]: > 40% | inhibition at 100 µM [57]: > 40% | inhibition at 100 µM [58]: > 40%
